Values of other authors as cited in US20080300217A1, “Combination Therapy with Fumaric Acid Esters for the Treatment of Autoimmune and/or Inflammatory Disorders” (ADITECH PHARMA AB, priority 2005, published 2008).

Conditions: pentoxifylline added to the standard Fumaderm treatment; psoriasis patients

CC(=O)CCCCn1c(=O)c2c(ncn2C)n(C)c1=O [pentoxifylline]
flush symptoms in patients: reduced the flush symptoms in patients
